Measurements as given in paper PMC2186054 (The Journal of Experimental Medicine, 1981).
“And” between values parts separate entries of the source, which are not always exact repeats. Identical values can stand only once.

Columns and labels:
[1] = system: myeloma protein CAL20 TEPC1035; test: Quantitative precipitin inhibition assay, CAL20 TEPC1035 with dextran B1498S; type: binding, murine; conditions: for Relative potency: Table II, maltose = 1.0
myeloma protein MOPC104E [2] = biological target: T1, myeloma protein MOPC104E (Mus musculus, UniProt P01724+P01756); test: Quantitative precipitin inhibition assay, MOPC104E; type: binding, BALB/c mouse; conditions: 25 µg dextran B1498S
myeloma protein MOPC104E [3] = biological target: T1, myeloma protein MOPC104E; conditions: cited from earlier work
myeloma protein J558 [4] = biological target: T2, myeloma protein J558 (Mus musculus, UniProt P01724+P01757); test: Quantitative precipitin inhibition assay, J558; type: binding, BALB/c mouse; conditions: at 0.99 µmol; 15 µg dextran B1498S
myeloma protein UPC102 = test: Quantitative precipitin inhibition assay, UPC102; type: binding, BALB/c mouse; conditions: at 0.52 µmol; 15 µg dextran B1355S
[5] = system: myeloma protein CAL20 TEPC1035; test: Quantitative precipitin assay with CAL20 TEPC1035; type: binding, murine; conditions: Table I; 6.5 µg antibody N, total vol 400 µl
myeloma protein J558 [6] = biological target: T2, myeloma protein J558; test: Quantitative precipitin assay with J558; type: binding, BALB/c mouse; conditions: Table I; total vol 400 µl
[7] = system: serum 895 (anti-panosyl-α(1→4)DGlc); test: Quantitative precipitin assay with antiserum 895; type: binding, Rabbit; conditions: 80 µl undiluted serum, total vol 400 µl
[8] = inhibition of CAL20 TEPC1035-dextran B1498S precipitation

T2 sequence (P01757 whole entry): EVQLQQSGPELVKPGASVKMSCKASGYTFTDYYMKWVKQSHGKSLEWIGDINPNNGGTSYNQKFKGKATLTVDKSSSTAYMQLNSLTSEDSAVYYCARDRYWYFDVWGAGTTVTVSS
T2 sequence (P01724 20-129): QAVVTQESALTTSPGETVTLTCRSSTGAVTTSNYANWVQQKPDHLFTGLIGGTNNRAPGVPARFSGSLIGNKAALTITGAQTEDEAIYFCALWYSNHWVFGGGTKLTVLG
T1 sequence (P01756 whole entry): as the sequence (P01757 whole entry) above, with R100Y, Y101D counted along it
T1 sequence (P01724 20-129): as the sequence (P01724 20-129) above

Compound: 34-a-u-glucosylisomaltohexaose [I/5]
- inhibition of precipitation ([1]; at 0.15 µmol): 47%

Compound: OC[C@H]1O[C@H](O[C@H]2[C@H](O)[C@@H](O)C(O)O[C@@H]2CO)[C@H](O)[C@@H](O)[C@@H]1O (mixture of isomers) [Maltose, maltose]
- Relative potency [1]: 1.0
- activity relative to methyl α-D-glucoside [1, 8]: three times

Compound: CC(=O)OC[C@@H](O)[C@@H](O)[C@H](O)[C@@H](O)C=O [6-O-acetyl-glucose, 6-O-acetyl-glucose]
- Relative potency [1]: 0.14

Compound: O=C[C@H](O)[C@@H](O)[C@H](O[C@@H]1O[C@H](CO)[C@@H](O)[C@H](O)[C@H]1O)[C@H](O)CO [Cellobiose, DGlcβ(1→4)DGlc]
- Relative potency [1]: 0.24

Compound: OC[C@H]1O[C@H](O[C@H]2[C@@H](OC[C@H]3OC(O)[C@H](O)[C@@H](O)[C@@H]3O)O[C@H](CO)[C@@H](O)[C@@H]2O)[C@H](O)[C@@H](O)[C@@H]1O (stereo partly shown) [DGlcα(1→2)DGlcα(1→6)DGlc]
- inhibition of precipitation ([1]; at 0.36 µmol): 15%

Compound: OC[C@H]1O[C@H](O[C@@H]2[C@@H](O)[C@@H](OC[C@H]3OC(O)[C@H](O)[C@@H](O)[C@@H]3O)O[C@H](CO)[C@H]2O)[C@H](O)[C@@H](O)[C@@H]1O (stereo partly shown) [DGlcα(1→3)DGlcα(1→6)DGlc]
- inhibition of precipitation ([1]; at 0.16 µmol): 40%

Compound: OC[C@H]1O[C@H](OC[C@H]2O[C@H](O[C@H]3[C@H](O)[C@@H](CO)OC(O)[C@@H]3O)[C@H](O)[C@@H](O)[C@@H]2O)[C@H](O)[C@@H](O)[C@@H]1O (stereo partly shown) [DGlcα(1→6)DGlcα(1→3)DGlc]
- Relative potency [1]: 1.6

Compound: OC[C@H]1O[C@H](OC[C@H]2O[C@H](O[C@H]3[C@H](O)[C@@H](O)[C@@H](O[C@H]4[C@H](O)[C@@H](O)C(O)O[C@@H]4CO)O[C@@H]3CO)[C@H](O)[C@@H](O)[C@@H]2O)[C@H](O)[C@@H](O)[C@@H]1O (stereo partly shown) [DGlcα(1→6)DGlcα(1→4)DGlcα(1→4)DGlc]
- Relative potency [1]: 2.4
- times more potent than the trisaccharide DGlcα(1→6)DGlcα(1→3)DGlc [1, 8]: 1.5 times

Compound: OC[C@H]1OC(O)[C@H](O)[C@@H](O)[C@@H]1O (stereo partly shown) [Glucose]
- inhibition of precipitation ([1]; at 0.2 µmol): 22%
- inhibition of precipitation ([1]; at 0.92 µmol (Table II)): 22%

Compound: OC[C@H]1O[C@H](OC[C@H]2O[C@H](OC[C@H]3O[C@H](OC[C@H]4O[C@H](OC[C@H]5OC(O)[C@H](O)[C@@H](O)[C@@H]5O)[C@H](O)[C@@H](O)[C@@H]4O)[C@H](O)[C@@H](O)[C@@H]3O[C@H]3O[C@H](CO)[C@@H](O)[C@H](O)[C@H]3O)[C@H](O)[C@@H](O)[C@@H]2O)[C@H](O)[C@@H](O)[C@@H]1O (stereo partly shown) [II/3, 43-a-v-glucosylisomaltopen taose]
- Relative potency [1]: 0.8

Compound: OC[C@H]1O[C@H](OC[C@H]2O[C@H](OC[C@H]3O[C@H](OC[C@H]4O[C@H](OC[C@H]5O[C@H](OC[C@H]6O[C@H](OC[C@H]7OC(O)[C@H](O)[C@@H](O)[C@@H]7O)[C@H](O)[C@@H](O)[C@@H]6O)[C@H](O)[C@@H](O)[C@@H]5O)[C@H](O)[C@@H](O)[C@@H]4O)[C@H](O)[C@@H](O)[C@@H]3O)[C@H](O)[C@@H](O)[C@@H]2O)[C@H](O)[C@@H](O)[C@@H]1O (stereo partly shown) [Isomaltoheptaose, isomaltoheptaose]
- inhibition of precipitation ([1]; at 0.4 µmol): 35%

Compound: OC[C@H]1O[C@H](OC[C@H]2O[C@H](OC[C@H]3O[C@H](OC[C@H]4O[C@H](OC[C@H]5O[C@H](OC[C@H]6OC(O)[C@H](O)[C@@H](O)[C@@H]6O)[C@H](O)[C@@H](O)[C@@H]5O)[C@H](O)[C@@H](O)[C@@H]4O)[C@H](O)[C@@H](O)[C@@H]3O)[C@H](O)[C@@H](O)[C@@H]2O)[C@H](O)[C@@H](O)[C@@H]1O (stereo partly shown) [Isomaltohexaose, isomaltohexaose]
- inhibition of precipitation ([1]; at 0.41 µmol): 20%

Compound: OC[C@H]1O[C@H](OC[C@H]2O[C@H](OC[C@H]3O[C@H](OC[C@H]4O[C@H](OC[C@H]5OC(O)[C@H](O)[C@@H](O)[C@@H]5O)[C@H](O)[C@@H](O)[C@@H]4O)[C@H](O)[C@@H](O)[C@@H]3O)[C@H](O)[C@@H](O)[C@@H]2O)[C@H](O)[C@@H](O)[C@@H]1O (stereo partly shown) [Isomaltopentaose, isomaltopentaose]
- inhibition of precipitation ([1]; at 0.5 µmol): 44%
- inhibition of precipitation ([1]; at 0.59 µmol (Table II)): 44%

Compound: OC[C@H]1O[C@H](OC[C@H]2OC(O)[C@H](O)[C@@H](O)[C@@H]2O)[C@H](O)[C@@H](O)[C@@H]1O (stereo partly shown) [Isomaltose, isomaltose]
- Relative potency [1]: 0.19
- activity relative to methyl α-D-glucoside [1, 8]: one-half

Compound: OC[C@H]1O[C@H](OC[C@H]2O[C@H](OC[C@H]3OC(O)[C@H](O)[C@@H](O)[C@@H]3O)[C@H](O)[C@@H](O)[C@@H]2O)[C@H](O)[C@@H](O)[C@@H]1O (stereo partly shown) [Isomaltotriose, isomaltotriose]
- Relative potency [1]: 0.20

Compound: OC[C@H]1O[C@H](O[C@H]2[C@H](O)[C@@H](O)[C@@H](OC[C@H]3OC(O)[C@H](O)[C@@H](O)[C@@H]3O)O[C@@H]2CO)[C@H](O)[C@@H](O)[C@@H]1O (stereo partly shown) [Isopanose, DGlcα(1→4)DGlcα(1→6)DGlc]
- Relative potency [1]: 0.35

Compound: OC[C@H]1O[C@H](O[C@H]2[C@H](O)[C@@H](O)[C@@H](OC[C@H]3O[C@H](O[C@H]4[C@H](O)[C@@H](O)[C@@H](O[C@H]5[C@H](O)[C@@H](O)[C@@H](OC[C@H]6OC(O)[C@H](O)[C@@H](O)[C@@H]6O)O[C@@H]5CO)O[C@@H]4CO)[C@H](O)[C@@H](O)[C@@H]3O)O[C@@H]2CO)[C@H](O)[C@@H](O)[C@@H]1O (stereo partly shown) [Isopanosylα(1→4)isopanose, DGlcα(1→4)DGlcα(1→6)DGlcα(1→4)DGlcα(1→4)DGlcα(1→6)DGlc]
- Relative potency [1]: 1.0
- times more potent than isopanose [1, 8]: 2.85 times

Compound: OC[C@H]1O[C@H](O[C@H]2C(O)O[C@H](CO)[C@@H](O)[C@@H]2O)[C@H](O)[C@@H](O)[C@@H]1O (stereo partly shown) [Kojibiose, DGlcα(1→2)DGlc]
- inhibition of precipitation ([1]; at 0.98 µmol): 20%

Compound: OC[C@H]1O[C@H](O[C@H]2[C@H](O)[C@@H](O)[C@@H](O[C@H]3[C@H](O)[C@@H](O)[C@@H](O[C@H]4[C@H](O)[C@@H](O)C(O)O[C@@H]4CO)O[C@@H]3CO)O[C@@H]2CO)[C@H](O)[C@@H](O)[C@@H]1O (stereo partly shown) [Maltotetraose, maltotetraose]
- Relative potency [1]: 1.0

Compound: OC[C@H]1O[C@H](O[C@@H]2[C@@H](O)[C@@H](O[C@@H]3[C@@H](O)[C@@H](O[C@@H]4[C@@H](O)[C@@H](O[C@H]5[C@H](O)[C@@H](CO)OC(O)[C@@H]5O)O[C@H](CO)[C@H]4O)O[C@H](CO)[C@H]3O)O[C@H](CO)[C@H]2O)[C@H](O)[C@@H](O)[C@@H]1O (stereo partly shown) [Nigeropentaose, nigeropentaose]
- Relative potency [1]: 0.29

Compound: OC[C@H]1O[C@H](O[C@H]2[C@H](O)[C@@H](CO)OC(O)[C@@H]2O)[C@H](O)[C@@H](O)[C@@H]1O (stereo partly shown) [Nigerose, nigerose]
- inhibition of precipitation of MOPC104E (myeloma protein MOPC104E [2]; at 0.9 µmol): 25%
- Relative potency [1]: 0.35
- activity relative to methyl α-D-glucoside [1, 8]: equally

Compound: OC[C@H]1O[C@H](O[C@@H]2[C@@H](O)[C@@H](O[C@@H]3[C@@H](O)[C@@H](O[C@H]4[C@H](O)[C@@H](CO)OC(O)[C@@H]4O)O[C@H](CO)[C@H]3O)O[C@H](CO)[C@H]2O)[C@H](O)[C@@H](O)[C@@H]1O (stereo partly shown) [Nigerotetraose, nigerotetraose]
- inhibition of precipitation of MOPC104E (myeloma protein MOPC104E [2]; at 0.82 µmol): 75%
- Relative potency [1]: 0.29

Compound: OC[C@H]1O[C@H](O[C@@H]2[C@@H](O)[C@@H](O[C@H]3[C@H](O)[C@@H](CO)OC(O)[C@@H]3O)O[C@H](CO)[C@H]2O)[C@H](O)[C@@H](O)[C@@H]1O (stereo partly shown) [Nigerotriose, nigerotriose]
- Relative potency [1]: 0.29

Compound: OC[C@H]1O[C@H](OC[C@H]2O[C@H](O[C@H]3[C@H](O)[C@@H](O)C(O)O[C@@H]3CO)[C@H](O)[C@@H](O)[C@@H]2O)[C@H](O)[C@@H](O)[C@@H]1O (stereo partly shown) [Panose]
- inhibition of precipitation of MOPC104E (myeloma protein MOPC104E [2]; up to 0.99 µmol): no inhibition
- Relative potency [1]: 8.0
- times more active than kojibiose [1, 8]: > 42 times
- times more potent than the tetrasaccharide DGlcα(1→6)DGlcα(1→4)DGlcα(1→4)DGlc [1, 8]: 3.3 times and 2.5 times
- relative potency at 50% inhibition relative to nigerose as 1.0 on a molar basis (myeloma protein MOPC104E [3]): 0.105
- inhibition of precipitation of J558 (myeloma protein J558 [4]): 15%
- inhibition of precipitation of UPC102 (myeloma protein UPC102): 15%

Compound: OC[C@H]1O[C@H](O[C@H]2O[C@H](CO)[C@@H](O)[C@H](O)[C@H]2O)[C@H](O)[C@@H](O)[C@@H]1O [Trehalose, DGlcα(1→1)DGlc]
- inhibition of precipitation ([1]; at 1.1 µmol): No inhibition

Compound: Gentiobiose
- Relative potency [1]: 0.12

Compound: Glycogen
- Precipitating power with CAL20 TEPC1035 [5]: -
- Precipitating power with J558 (myeloma protein J558 [6]): -
- Precipitation with serum 895 [7]: precipitated poorly

Compound: Pullulan
- Precipitating power with CAL20 TEPC1035 [5]: -
- Precipitating power with J558 (myeloma protein J558 [6]): -
- Precipitation with serum 895 [7]: precipitated poorly

Compound: maltoheptaose
- Relative potency [1]: 2.4

Compound: maltohexaose
- Relative potency [1]: 2.4

Compound: maltopentaose
- Relative potency [1]: 1.41

Compound: maltotriose
- Relative potency [1]: 1.0

Compound: nigerohexa-heptaose
- Relative potency [1]: 0.33
